In paper doi:10.1101/2021.03.02.433618v2 (biorxiv, 2021):
Like-named read-outs stand apart in the source and are kept apart here.

Legend:
3CLpro [1] = molecular target: T1, 3CLpro (Severe acute respiratory syndrome coronavirus 2, UniProt P0DTD1); assay: biochemical
3CLpro [2] = molecular target: T1, 3CLpro; assay: biochemical; remark: listed apart in the source

Row | Structure (SMILES) | IC50 (3CLpro [1]) | IC50 (3CLpro [2])
1 | O=c1cc(-c2ccc(O)c(-c3c(O)cc(O)c4c(=O)cc(-c5ccc(O)cc5)oc34)c2)oc2cc(O)cc(O)c12 [amentoflavone] | 143 ± 23 µM | –
2 | O=c1cc(-c2ccc(O)c(O)c2)oc2cc(O)cc(O)c12 [luteolin] | 343 ± 77 µM | –
3 | CC(=O)c1c(O)c(C)c(O)c(Cc2c(O)c3c(c(C(=O)/C=C/c4ccccc4)c2O)OC(C)(C)C=C3)c1O [rottlerin] | – | 37 µM
